For the assay, the system named is NCI-H211 complex spheroid viability. In words: Anticancer human tumor NCI-H211 cell line growth inhibition [LSD1].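 For all read-outs here: luminescent viability read after seven days of drug exposure.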 The settings on record: for viability, T/C: stronger effect = lower value; for IC50: curve of compound. The source says:
Multicellular complex tumor spheroid response to LSD1 Inhibitor Iadademstat in combination with a variety of drugs and investigational agents in selected tumor cell lines
The current study was undertaken to assess response to LSD1 inhibitors in combination with standard-of-care drugs and investigational agents in solid tumor complex spheroid models as well as in the K-562 leukemia. Complex spheroids include a stromal component modeled by human endothelial cells (HUVEC) and fibroblasts modeled by human mesenchymal stem cells (MSCs). The concentration ranges selected for each drug and investigational agent were based upon clinically achievable concentrations if the clinical Cmax of the agent was known.
Compounds. The drugs and investigational agents used in this study are listed on Table 1. All of the agents used, including staurosporine (NSC755774) and gemcitabine (NSC613327), were obtained from the Developmental Therapeutics Program, NCI. FDA-approved anticancer drugs are available from the NCI at http://dtp.nci.nih.gov/branches/dscb/oncology_drugset_explanation.html. Drugs and investigational agents were >95% pure by proton nuclear magnetic resonance (NMR) and liquid chromatography/mass spectrometry (LC/MS). Stock solutions were prepared at 400x in DMSO, stored at -70 degrees C, and diluted in fresh medium prior to their use. The final concentration of DMSO in cell culture wells never exceeded 0.25% (v/v). The FDA-approved anticancer drug set is available from the Developmental Therapeutics Program at https://dtp.cancer.gov/organization/dscb/obtaining/available_plates.htm. All drugs and investigational agents were tested over a range starting from a high concentration at or near the clinical Cmax and decreasing in half-log increments. If the clinical Cmax for an agent had not been determined, the highest concentration tested was 10 microM.
Cell Lines. The patient-derived cancer cell (PDC) lines: 292921-168-R-J2-PDC, K24384-001-R-PDC, and 521955-158-R2-J5-PDC pancreatic carcinomas, 556581-035-R-J1 ovarian carcinoma, 324938-238-R-J1-PDC, 855422-203-R-J1-PDC and 883617-216-R-J1-PDC urothelial bladder carcinomas, 743489-274-T-PDC renal cell carcinoma, 138582-R-J1 Merkel cell tumor, K60290-347-R-J1 and K57222-313-R-J1-PDC glioblastomas, 653999-131-R-J2-PDC, LG0703-F948-PDC, and 349418-098-R-PDC non-small cell lung carcinomas, 885512-296-R-J2-PDC, 171881-019-R-J1-PDC breast carcinomas and 186277-243-T-J2-PDC and 233499-124-R-J2-PDC colon carcinomas were obtained from the NCI Patient-Derived Models Repository (PDMR, https://pdmr.cancer.gov). The established cell lines NCI/ADR-RES (RRID:CVCL_14520 and OVCAR-5 (RRID:CVCL_1628) ovarian carcinomas, 786-O (RRID:CVCL_1051) and A498 (RRID:CVCL_A498) renal cell carcinoma, NCI-H211 (ATCC, cat. CRL-5824; RRID:CVCL_1529), NCI-H196 (ATCC, cat. CRL-5823, RRID:CVCL_1509), SW 1271 (ATCC, cat. CRL-2177, RRID:CVCL_1716) and NCI-H1876 (ATCC, cat. CRL-5902, RRID:CVCL_1503) small cell lung carcinomas, MDA-MB-231 (RRID:CVCL_0062) and MDA-MB-468 (RRID:CVCL_0419)breast carcinomas (10-12). Pooled donor human umbilical vein endothelial cells (HUVEC, Lonza, cat. CC-2519) and human mesenchymal stem cells (hMSC, Lonza, cat. PT-2501) were purchased from Lonza (Walkersville, MD).
Cell Culture. All cells were maintained in an incubator at 37 degrees C and 5% CO2 with 95% humidity. The PDC lines were cultured according to standard operating procedures established by the NCI PDMR (https://pdmr.cancer.gov). Briefly all PDCs were thawed and cultured in Matrigel-coated flasks prepared with a working solution of 1X Ham's F-12 nutrient mix, without supplementation (Invitrogen, Waltham, MA, cat. 11765054), 100 U/mL penicillin-streptomycin (Invitrogen, cat. 15140122), and 2.5% Matrigel (Corning Inc., Corning, NY, cat. 354248) for the first three passages. […]

Molecules are shown by their SMILES. Values joined by “and” are separate entries in the source; they are usually repeats but may differ in a detail not shown here. Equal entries are not always repeated. Some results are limits rather than exact numbers.

In general, viability, T/C refers to the ratio of treated to control. What is called IC50 is the concentration that gives 50% inhibition.

For the compound `Cn1ncnc1C1c2n[nH]c(=O)c3cc(F)cc(c23)NC1c1ccc(F)cc1` (stereo not drawn), the IC50 was 2.79 nM and 2.01 nM. The viability, T/C (compound 0.000316 µM) was 102% and 103%. Further, the viability, T/C (compound 0.001 µM) is 94.9% and 82.6%. The viability, T/C (compound 0.00316 µM) was 44.8% and 29%. Also, the viability, T/C (compound 0.01 µM) is 5.27% and 6.62%. The viability, T/C (compound 0.0316 µM) is 8.07% and 5.97%. The viability, T/C (compound 0.1 µM) is 3.43% and 6.43%.
Turning to `NS(=O)(=O)OCC1CC(n2ccc3c(NC4CCc5ccccc54)ncnc32)CC1O` (stereo not drawn), the IC50 was under 9.49 nM. In addition, where the note is “compound 0.00949 µM”, the viability, T/C was 27% and 23.2%. Besides, the viability, T/C (compound 0.03 µM) is 11.8% and 10.5%. Besides, the viability, T/C (compound 0.0949 µM) is 2.66% and 3.81%. Also, where the note is “compound 0.3 µM”, the viability, T/C is 6.35% and 1.26%. Also, where the note is “compound 0.949 µM”, the viability, T/C is 0.58% and 0.97%. The viability, T/C (compound 3 µM) was 0.31% and 0.53%.
As for `Nc1ccccc1NC(=O)c1ccc(CNC(=O)OCc2cccnc2)cc1`, the IC50 is 31.3 nM and 22.1 nM. Under “compound 0.00949 µM”, the viability, T/C is 106% and 110%. Moreover, the viability, T/C (compound 0.03 µM) was 51.8% and 28.6%. Where the note is “compound 0.0949 µM”, the viability, T/C is 5.07% and 4.05%. The viability, T/C (compound 0.3 µM) was 1.34% and 3.99%. The viability, T/C (compound 0.949 µM) was 0.93% and 2.1%. Also, the viability, T/C (compound 3 µM) was 0.2% and 0.22%.
With `Nc1ccn(C2OC(CO)C(O)C2(F)F)c(=O)n1` (stereo not drawn), the IC50 is under 0.949 nM. The viability, T/C (compound 0.000949 µM) was 2.49% and 5.54%. Moreover, where the note is “compound 0.003 µM”, the viability, T/C was 2.72% and 4.15%. The viability, T/C (compound 0.00949 µM) is 7.87% and 4.04%. Besides, for the setting “compound 0.03 µM”, the viability, T/C is 2.08% and 4.19%. Also, the viability, T/C (compound 0.0949 µM) was 2.85% and 4.27%. Besides, the viability, T/C (compound 0.3 µM) is 2.42% and 5%.
For `Nc1ncn(C2CC(O)C(CO)O2)c(=O)n1` (stereo not drawn), the half-inhibitory concentration (IC50) was under 3.16 nM. Also, the viability, T/C (compound 0.00316 µM) was 35.4% and 37.7%. Moreover, the viability, T/C (compound 0.01 µM) was 21.4% and 19%. In addition, the viability, T/C (compound 0.0316 µM) was 9.11% and 7%. For the same compound, the viability, T/C (compound 0.1 µM) is 2.47% and 4.09%. In addition, for the setting “compound 0.316 µM”, the viability, T/C is 1.77% and 5.19%. Besides, the viability, T/C (compound 1 µM) was 1.67% and 4.71%.
`Nc1ncn(C2CC(O)C(CO)S2)c(=O)n1` (stereo not drawn): the IC50 was 1.89 nM and < 0.949 nM. Further, the viability, T/C (compound 0.000949 µM) is 74.8% and 46.6%. The viability, T/C (compound 0.003 µM) was 33.3% and 23.1%. For the same compound, under “compound 0.00949 µM”, the viability, T/C is 9.28% and 10.7%. In addition, the viability, T/C (compound 0.03 µM) is 3.02% and 5.29%. Further, the viability, T/C (compound 0.0949 µM) was 1.96% and 4.56%. Also, the viability, T/C (compound 0.3 µM) was 2.36% and 4.76%.
On to `O=C(C=Cc1cccc(S(=O)(=O)Nc2ccccc2)c1)NO`, for which the IC50 is under 9.49 nM. Moreover, the viability, T/C (compound 0.00949 µM) was 28.4% and 18.3%. For the same compound, the viability, T/C (compound 0.03 µM) was 3.38% and 8.21%. Also, the viability, T/C (compound 0.0949 µM) was 2.69% and 7.91%. Further, the viability, T/C (compound 0.3 µM) was 2.15% and 6.02%. Moreover, the viability, T/C (compound 0.949 µM) was 0.94% and 1.35%. Moreover, the viability, T/C (compound 3 µM) is 0.17% and 0.22%.
Consider `O=C(C=Cn1cnc(-c2cc(C(F)(F)F)cc(C(F)(F)F)c2)n1)NNc1cnccn1`, for which the half-inhibitory concentration (IC50) is < 3.16 nM and 4.13 nM. Further, for the setting “compound 0.00316 µM”, the viability, T/C was 45.9% and 53.7%. Besides, the viability, T/C (compound 0.01 µM) is 24% and 37.6%. For the same compound, the viability, T/C (compound 0.0316 µM) is 11.7% and 14.6%. Besides, for the setting “compound 0.1 µM”, the viability, T/C was 4.91% and 5.02%. Besides, the viability, T/C (compound 0.316 µM) is 1.61% and 2.32%. The viability, T/C (compound 1 µM) is 1.37% and 2.1%.
Turning to `O=C(c1cc(Cc2n[nH]c(=O)c3ccccc23)ccc1F)N1CCN(C(=O)C2CC2)CC1`, the IC50 is 46.4 nM and 36.9 nM. For the same compound, under “compound 0.0316 µM”, the viability, T/C was 59.8% and 54.5%. Moreover, the viability, T/C (compound 0.1 µM) was 30.3% and 22.6%. Also, for the setting “compound 0.316 µM”, the viability, T/C was 6.95% and 9.45%. The viability, T/C (compound 1 µM) was 3.01% and 7.35%. Moreover, the viability, T/C (compound 3.16 µM) is 2.95% and 7.77%. Further, the viability, T/C (compound 10 µM) was 2.77% and 6.06%.
